Measured values reported in patent US9322066B2, “Predictors for cancer treatment” (priority 2011, dated 2016).

Test system: relapsed or refractory, rituximab-naive or -sensitive follicular B-cell NHL
Test: Progression-free survival (PFS), Vc-R vs rituximab study, by biomarker
Type: in vivo, human
Description: Non-Hodgkin lymphoma (NHL) encompasses several unique malignant lymphoid disease entities that vary in clinical behavior, morphologic appearance, immunologic, and molecular phenotype. […] A randomized, open-label, active-controlled, multicenter, multinational, prospective study to compare the efficacy and safety of the combination of bortezomib and rituximab (Vc-R) to single-agent rituximab in subjects who have relapsed or refractory, rituximab-naive or -sensitive follicular B-cell NHL was performed.
Subjects were centrally randomized to Treatment Groups A (Vc-R) or B (rituximab) in a 1:1 ratio taking into account the following stratification factors: • Follicular Lymphoma International Prognostic Index (FLIPI) score (low [0 or 1 factor], intermediate [2 factors], high [≧3 factors]); • Prior rituximab therapy (yes, no); • Time since last dose of anti-lymphoma therapy (≦1 year, >1 year); • Region (United States/Canada, European Union, Rest of World).
The following clinical endpoints were included in the analysis within each treatment group and an overall comparison was made with the biomarker-related endpoints: Progression-free survival, defined as the interval between the date of randomization and the date of progressive disease (PD) or death, whichever is first reported in the ITT population; overall survival; overall response rate (complete response [CR]+CR unconfirmed [CRu]+partial response [PR]); overall CR rate (CR+CRu); duration of response; time to next anti-lymphoma therapy; and treatment free interval.
For single-marker association analyses and pair-wise comparisons, a log rank test and Cox proportional hazard model was utilized for assessments of PFS, TTP, and OS between the treatment groups. Kaplan-Meier curves were utilized to estimate the distribution differences between groups in the time-to-event analyses. Comparison of the response rates between the treatment groups was conducted using the Fishers exact test. Single-marker association analyses were stratified by the covariates.
For pair-wise comparison analysis, biomarker pairs were formed by combinations of two markers. A log rank test was utilized for assessments of PFS, TTP, and OS between the treatment groups in the subpopulation defined by biomarker pairs. Kaplan-Meier curves were utilized to estimate the distribution differences between groups in the time-to-event analyses. Comparison of the response rates between the treatment groups was conducted using the Fishers exact test. Methods of Analysis for the multiple biomarker comparison models can be found in section 4.6.
The stratified log rank test and Cox proportional hazard model was utilized for assessments of PFS between the treatment groups. The Kaplan-Meier method was to be used to estimate the distribution of overall PFS for each treatment group in the biomarker population, and overall; stratified by expression level, SNP, or mutation (or covariate groups as noted above). The hazard ratio and 95% confidence interval was based on a stratified Cox's proportion hazard model with treatment as the explanatory variable. Analyses were done for the population overall and by treatment group, and each of these analyses were also stratified by the following factors if sufficient sample size existed: […]

For rituximab, the “Median PFS (Vc-R vs R)” value (PSMB1/P11A C/G + P65 % POSITIVE CYTOPLASMIC SIGNAL >90%, Excluded) was 348 days, the “Median PFS (Vc-R vs R)” value (PSMB1/P11A C/G + P65 % POSITIVE CYTOPLASMIC SIGNAL >90%, Selected) was 278 days and the “Median PFS (Vc-R vs R)” value (PSMB1/P11A C/G + P65 % POSITIVE CYTOPLASMIC SIGNAL >90%, Total) was 338 days. For the same substance, the “Median PFS (Vc − R vs R)” value (PSMB1/P11A C/G + PSMB9/R60H G/G, Excluded) was 346 days, the “Median PFS (Vc − R vs R)” value (PSMB1/P11A C/G + PSMB9/R60H G/G, Selected) was 288 days and the “Median PFS (Vc − R vs R)” value (PSMB1/P11A C/G + PSMB9/R60H G/G, Total) was 345 days. The “Median PFS (Vc-R vs R)” value (PSMB1/P11A G/G + PSMB5/R24C C/T, Excluded) was 345 days, the “Median PFS (Vc-R vs R)” value (PSMB1/P11A G/G + PSMB5/R24C C/T, Selected) was 237.5 days and the “Median PFS (Vc-R vs R)” value (PSMB1/P11A G/G + PSMB5/R24C C/T, Total) was 345 days. The “Median PFS (Vc − R vs R)” value (PSMB5/R24AC C/C + 20S % NUCLEAR STAINING 30-90, Excluded) was 346 days, the “Median PFS (Vc − R vs R)” value (PSMB5/R24C C/C + 20S % NUCLEAR STAINING 30-90, Selected) was 281 days and the “Median PFS (Vc − R vs R)” value (PSMB5/R24C C/C + 20S % NUCLEAR STAINING 30-90, Total) was 345 days. For the same substance, the PFS median (PSMB5/R24C C/T) was 9.3 mo, the PFS median (PSMB5/R24C C/T & CD68 POSITIVE FOLLICULAR: 0-50) was 7.2 mo and the PFS median (PSMB5/R24C C/T & P65 INTENSITY CYTOPLASMIC SIGNAL <=1+) was 10.4 mo. For the same substance, the “Median PFS (Vc-R vs R)” value (PSMB5/R24C C/T + CD68 POSITIVE FOLLICULAR 0-50, Total) was 345 days, the “Median PFS (Vc-R vs R)” value (PSMB9/R60H A/G + 20S % POSITIVE CYTOPLASMIC SIGNAL 95-100, Excluded) was 347 days and the “Median PFS (Vc-R vs R)” value (PSMB9/R60H A/G + 20S % POSITIVE CYTOPLASMIC SIGNAL 95-100, Selected) was 273 days. For the same substance, the “Median PFS (Vc-R vs R)” value (PSMB9/R60H A/G + 20S % POSITIVE CYTOPLASMIC SIGNAL 95-100, Total) was 345 days, the “Median PFS (Vc − R vs R)” value (PSMB9/R60H A/G + CD68 OVERALL POSITIVE 0-50, Excluded) was 349 days and the “Median PFS (Vc − R vs R)” value (PSMB9/R60H A/G + CD68 OVERALL POSITIVE 0-50, Selected) was 273 days. The “Median PFS (Vc − R vs R)” value (PSMB9/R60H A/G + CD68 OVERALL POSITIVE 0-50, Total) was 345 days, the “Median PFS (Vc-R vs R)” value (PSMB9/R60H A/G + CD68 POSITIVE FOLLICULAR 0-50, Excluded) was 349 days and the “Median PFS (Vc-R vs R)” value (PSMB9/R60H A/G + CD68 POSITIVE FOLLICULAR 0-50, Selected) was 273 days. The “Median PFS (Vc-R vs R)” value (PSMB9/R60H A/G + CD68 POSITIVE FOLLICULAR 0-50, Total) was 345 days, the PFS median (PSMB9/R60H G/G & P65 % NUCLEAR STAINING: >0) was 9.5 mo and the “Median PFS (Vc − R vs R)” value (PSMB9/R60H G/G + 20S % NUCLEAR STAINING 30-90, Excluded) was 345 days. For the same substance, the “Median PFS (Vc-R vs R)” value (PSMB9/R60H G/G + 20S % NUCLEAR STAINING 30-90, Selected) was 280 days, the “Median PFS (Vc − R vs R)” value (PSMB9/R60H G/G + 20S % NUCLEAR STAINING 30-90, Total) was 345 days and the PFS median (Prior RX: 1 & CD68 POSITIVE FOLLICULAR: 0-50) was 9.3 mo. For the same substance, the PFS median (Prior Ritutux NO & CD68 POSITIVE FOLLICULAR: 0-50) was 9.2 mo, the PFS median (Race Group OTHER & 20S % NUCLEAR STAINING: >20) was 3.8 mo and the “Median PFS (Vc-R vs R)” value (SEX MALE + 20S % NUCLEAR STAINING 30-90, Excluded) was 357 days. For the same substance, the “Median PFS (Vc-R vs R)” value (SEX MALE + 20S % NUCLEAR STAINING 30-90, Selected) was 235 days, the “Median PFS (Vc-R vs R)” value (SEX MALE + 20S % NUCLEAR STAINING 30-90, Total) was 345 days and the “Median PFS (Vc − R vs R)” value (SEX MALE + P65 % POSITIVE CYTOPLASMIC SIGNAL >90%, Excluded) was 375 days. For the same substance, the “Median PFS (Vc − R vs R)” value (SEX MALE + P65 % POSITIVE CYTOPLASMIC SIGNAL >90%, Selected) was 271 days, the “Median PFS (Vc − R vs R)” value (SEX MALE + P65 % POSITIVE CYTOPLASMIC SIGNAL >90%, Total) was 345 days and the “Median PFS (Vc-R vs R)” value (Selected: 20S % NUCLEAR STAINING 30-90 and P65 % POSITIVE CYTOPLASMIC SIGNAL >90%) was 277 days. The “Median PFS (Vc-R vs R)” value (Selected: AGEGRP <=65 and CD68 OVERALL POSITIVE 0-50) was 279 days, the “Median PFS (Vc-R vs R)” value (Selected: AGEGRP <=65 and P65 % POSITIVE CYTOPLASMIC SIGNAL >90%) was 277 days and the “Median PFS (Vc-R vs R)” value (Selected: CD68 OVERALL POSITIVE 0-50 and P65 % POSITIVE C[…] >90%) was 279 days. The “Median PFS (Vc-R vs R)” value (Selected: FLIPI High and P65 % POSITIVE CYTOPLASMIC SIGNAL >90%) was 212 days, the “Median PFS (Vc-R vs R)” value (Selected: PRITUX NO and P65 % NUCLEAR STAINING 0) was 287 days and the “Median PFS (Vc-R vs R)” value (Selected: PSMB1/P11A C/G and ANNARBOR >=III) was 275 days. The “Median PFS (Vc-R vs R)” value (Selected: PSMB1/P11A C/G and P65 % NUCLEAR STAINING 0) was 279 days, the PFS median (Sex MALE & 20S % NUCLEAR STAINING: >20) was 7.7 mo and the “Median PFS (Vc-R vs R)” value (TLAST >1 year + CD68 POSITIVE FOLLICULAR 0-50, Excluded) was 288 days. The “Median PFS (Vc-R vs R)” value (TLAST >1 year + CD68 POSITIVE FOLLICULAR 0-50, Selected) was 357 days, the “Median PFS (Vc-R vs R)” value (TLAST >1 year + CD68 POSITIVE FOLLICULAR 0-50, Total) was 346 days and the “Median PFS (Vc − R vs R)” value (TLAST >1 year + P65 % POSITIVE CYTOPLASMIC SIGNAL >90%, Excluded) was 280 days. For the same substance, the “Median PFS (Vc − R vs R)” value (TLAST >1 year + P65 % POSITIVE CYTOPLASMIC SIGNAL >90%, Selected) was 357 days, the “Median PFS (Vc − R vs R)” value (TLAST >1 year + P65 % POSITIVE CYTOPLASMIC SIGNAL >90%, Total) was 345 days and the “PFS median” value (Total biomarker evaluable, N = 356) was 11.3 months. For the same substance, the “Median PFS (Vc-R vs R)” value (Total: 20S % NUCLEAR STAINING 30-90 and P65 % POSITIVE CYTOPLASMIC SIGNAL >90%) was 345 days, the “Median PFS (Vc-R vs R)” value (Total: AGEGRP <=65 and CD68 OVERALL POSITIVE 0-50) was 345 days and the “Median PFS (Vc-R vs R)” value (Total: AGEGRP <=65 and P65 % POSITIVE CYTOPLASMIC SIGNAL >90%) was 345 days. For the same substance, the “Median PFS (Vc-R vs R)” value (Total: CD68 OVERALL POSITIVE 0-50 and P65 % POSITIVE C[…] >90%) was 345 days, the “Median PFS (Vc-R vs R)” value (Total: FLIPI High and P65 % POSITIVE CYTOPLASMIC SIGNAL >90%) was 345 days and the “Median PFS (Vc-R vs R)” value (Total: PRITUX NO and P65 % NUCLEAR STAINING 0) was 345 days. The “Median PFS (Vc-R vs R)” value (Total: PSMB1/P11A C/G and ANNARBOR >=III) was 345 days, the “Median PFS (Vc-R vs R)” value (Total: PSMB1/P11A C/G and P65 % NUCLEAR STAINING 0) was 338 days and the PFS (confirmation cohort 1 (excludes China; n=106), biomarker positive) was 9.5 months. For the same substance, the “median PFS” value (confirmation cohort 2 (includes China subjects and subjects with missing data), biomarker positive) was 9.5 months, the PFS (discovery cohort, CD68 Low and PSMB P11A) was 8.5 months and the “median PFS” value (subjects with PSMB1 P11A (C/G)) was 9.5 months. For the same substance, the “median PFS” value (subjects with higher CD68 expression) was 16.2 months and the “median PFS” value (subjects with low CD68 (0-50)) was 9.3 months.
